Source: article PMC10886162, “Synthesis of Novel Artemisinin, Ciprofloxacin, and Norfloxacin Hybrids with Potent Antiplasmodial Activity” (Antibiotics, 2024)
“And” between values parts separate entries of the source, which are not always exact repeats. Identical values can stand only once.

Assays:
3D7 strain = system: 3D7 strain; design: method as in PMID 30023664; details: cited from earlier work
3D7 P. falciparum strain = system: 3D7 P. falciparum strain; design: method as in PMID 32676153; details: cited from earlier work
W2 P. falciparum strain = system: W2 P. falciparum strain; design: method as in PMID 32676153; details: cited from earlier work
[1] = system: mammalian and bacterial systems; design: method as in PMID 32676153; details: cited from earlier work
[2] = system: CQ-resistant P. falciparum strain FcB1; details: cited from earlier work
[3] = system: CQ-resistant P. falciparum FcB1 strain; experiment: In vitro growth inhibition of P. falciparum FcB1 ([3H]-hypoxanthine incorporation); assay type: cell-based, Plasmodium falciparum; details: for IC50: Plasmodium falciparum; for Selectivity Index (IC50 AB943/IC50 FcB1): ratio of cytotoxicity IC50 to antiplasmodial IC50 (FcB1)
Description: (§1) The chloroquine-resistant FcB1/Colombia and Dd2/Indochina strains of Plasmodium falciparum were obtained from the Protist Collection of the National Museum of Natural History, Paris, France (n° MNHN-CEU-2016-224-PfFCB1 and MNHN-CEU-2016-222-PfDD2). The parasites were maintained in vitro on human erythrocytes in RPMI 1640 medium supplemented by 8% (v/v) heat-inactivated human serum, at 37 °C, under an atmosphere of 5% CO2. The human red blood cells and serum were provided by the Établissement Français du Sang under the C-CPSL-UNT approval no. 13/EFS/126. The in vitro drug susceptibility assays were measured by [^3H]-hypoxanthine incorporation, as previously described. The drug stock solutions were prepared in DMSO. Briefly, the assays were performed in 96-well plates. The compounds were diluted in the culture medium (100 μL per well). The parasite cultures (100 μL, 2% parasitaemia, and 1% final hematocrit) were then added to each well and incubated for 24 h at 37 °C prior to the addition of 0.5 μCi of [^3H]- hypoxanthine (GE Healthcare, Paris, France, 1 to 5 Ci·mmol/mL) per well. After a further incubation of 24 h, the plates were frozen and thawed. The cell lysates were then collected onto fiberglass filters and counted in a liquid scintillation spectrometer. The growth inhibition for each drug concentration was determined through a comparison of the radioactivity incorporated in the treated culture with that in the control culture maintained on the same plate. The drugs were first evaluated for a range of fixed concentrations of 50, 5, 0.5, 0.05, and 0.005 μg/mL. […] The IC50 value was obtained from the drug concentration–response curve, and the results were expressed in μM or nM as the mean values ± standard deviations determined from several independent experiments. Artesunate (46) was used as an antimalarial drug control.

[4] = system: CQ-resistant Dd2 strain of P. falciparum; experiment: In vitro growth inhibition of P. falciparum Dd2 ([3H]-hypoxanthine incorporation); assay type: cell-based, Plasmodium falciparum; details: for IC50: Plasmodium falciparum, CQ-resistant Dd2, mean +/− SD of at least three independent experiments; for Selectivity Index (IC50 AB943/IC50 Dd2): ratio of cytotoxicity IC50 to antiplasmodial IC50 (Dd2)
Description: as §1

[5] = system: human primary fibroblasts AB943; experiment: Cytotoxicity upon human primary fibroblasts AB943 (resazurin); assay type: cell-based; details: Fibroblast, 72 h, mean +/− SD of at least three independent experiments
Description: A cellular cytotoxicity evaluation was performed upon human primary fibroblasts AB943, as previously described. The assays were realized in 96-well plates in DMEM + Glutamax without phenol red medium containing 25 mM HEPES, a pH of 7.3, and 10% of fetal calf serum under a 5% CO2 atmosphere, at 37 °C. After trypsin treatment, the AB943 cells were seeded at 2000 cells per well in 100 μL. After 24 h of incubation, drugs diluted in the culture medium were added (100 μL per well). The drug stock solutions were prepared in dimethyl sulfoxide (DMSO). The final DMSO concentration in the cultures remained below 1%. Control cultures were constituted of cultures treated with DMSO instead of the drug. The cytotoxicity assay was based on the conversion of a redo-sensitive dye (resazurin) to a fluorescent product via viable cells. After 72 h of incubation, the resazurin solution was added in each well at a final concentration of 45 μM. The fluorescence was measured at 530 nm excitation and 590 nm emission wavelengths after 4 h of incubation. The percentage of the inhibition of cell growth was calculated by comparing the fluorescence of cells maintained in the presence of the drug to that in the absence of the drug. The concentration causing 50% growth inhibition (IC50) was obtained from the drug concentration–response curve, and the results were expressed as the mean values ± standard deviations determined from several experiments.

[6] = system: P. falciparum parasite strains (3D7, Dd2, and K1); design: method as in PMID 31290221; details: range over 3D7, Dd2 and K1 strains; cited from earlier work
[7] = FCB1, CQ-resistant FcB1, mean +/− standard deviation of independent experiments (at least four in Tables 1-2, at least three in Tables 3-4)
[8] = FCB1, Table 5, single compound (hybrid or AS alone)

Structure (SMILES) | IC50 [3, 7] | Selectivity Index (IC50 AB943/IC50 FcB1) [3] | IC50 [4] | Selectivity Index (IC50 AB943/IC50 Dd2) [4] | IC50 [5] | melting point | other results
C[C@H]1[C@@H](O)O[C@@H]2O[C@@]3(C)CC[C@H]4[C@H](C)CC[C@@H]1[C@@]24OO3 [DHA, dihydroartemisinin] |  |  |  |  |  |  | EC50 (3D7 strain): 2.4 ± 0.4 nM
CCOC(=O)c1cn(C2CC2)c2cc(N3CCN(c4ccnc5cc(Cl)ccc45)CC3)c(F)cc2c1=O [hybrid 10] |  |  |  |  |  |  | IC50 (3D7 P. falciparum strain): 63.2 ± 1.2 nM; IC50 (W2 P. falciparum strain): 25.5 ± 4.45 nM; toxicity to mammalian and bacterial systems [1]: nontoxic
C[C@@H]1CC[C@H]2[C@@H](C)C(=O)O[C@@H]3O[C@@]4(C)CC[C@@H]1[C@]32OO4 [ART, artemisinin] |  |  |  |  |  |  | IC50 [2]: 55 ± 13.6 nM
C[C@@H]1CCC2[C@@H](C)[C@H](OC(=O)CCC(=O)N3CCN(c4cc5c(cc4F)c(=O)c(C(=O)N4CCN(c6ccnc7cc(Cl)ccc67)CC4)cn5C4CC4)CC3)O[C@@H]3O[C@@]4(C)CCC1[C@@]23OO4 (stereo partly drawn) [Compound 28, (3R,6R,9R,10S,12R,12aR)-3,6,9-trimethyldecahydro-12H-3,12-epoxy[1,2]dioxepino[4,3-i]isochromen-10-yl 4-(4-(3-(4-(7-chloroquinolin-4-yl)piperazine-1-carbonyl)-1-cyclopropyl-6-fluoro-4-oxo-1,4-dihydroquinolin-7-yl)piperazin-1-yl)-4-oxobutanoate] | 4.9 nM | 4046 | 12.4 nM | 1582 | 19600 nM | 157 to 158.2 °C | 
C[C@@H]1CCC2[C@@H](C)[C@@H](CCC(=O)N3CCN(c4cc5c(cc4F)c(=O)c(C(=O)N4CCN(c6ccnc7cc(Cl)ccc67)CC4)cn5C4CC4)CC3)O[C@@H]3O[C@@]4(C)CCC1[C@@]23OO4 (stereo partly drawn) [Compound 26, 3-(4-(7-chloroquinolin-4-yl)piperazine-1-carbonyl)-1-cyclopropyl-6-fluoro-7-(4-(3-((3R,6R,9R,10R,12R,12aR)-3,6,9-trimethyldecahydro-12H-3,12-epoxy[1,2]dioxepino[4,3-i]isochromen-10-yl)propanoyl)piperazin-1-yl)quinolin-4(1H)-one] | 13.7 nM | 2668 | 41.5 nM | 880 | 36500 nM | 115 to 116 °C | 
C[C@H]1[C@H](OC(=O)CCC(=O)O)O[C@@H]2O[C@@]3(C)CC[C@H]4[C@H](C)CC[C@@H]1[C@@]24OO3 [AS (46), artesunate, reference compound] | 18.5 nM | >7042 | 41.9 nM | >3104 | > 130000 nM |  | IC50 [3, 8]: 4.5 nM; EC50 [6]: 5.2 to 14.4 nM
CCN(CC)CCCC(C)Nc1ccnc2cc(Cl)ccc12 (stereo not shown) [CQ, chloroquine] |  |  |  |  |  |  | EC50 (3D7 strain): 9.8 ± 2.8 nM
CCOC(=O)c1cn(CC)c2cc(N3CCN(C(=O)C[C@H]4O[C@@H]5O[C@@]6(C)CCC7[C@H](C)CCC([C@H]4C)[C@]75OO6)CC3)c(F)cc2c1=O (stereo partly drawn) [Compound 18, Ethyl 1-ethyl-6-fluoro-4-oxo-7-(4-(2-((3R,6R,9R,10R,12R,12aR)-3,6,9-trimethyldecahydro-12H-3,12-epoxy[1,2]dioxepino[4,3-i]isochromen-10-yl)acetyl)piperazin-1-yl)-1,4-dihydroquinoline-3-carboxylate] | 25.5 nM | 2129 | 58.7 nM | 925 | 54300 nM | 135.1 to 136 °C | 
CC1CCC2C(C)C(OC(=O)CCC(=O)OCCNc3ccc4ncnc(Nc5ccc(Cl)c(Cl)c5)c4c3)OC3OC4(C)CCC1C32OO4 (stereo not shown) [hybrid 3] |  |  |  |  |  |  | EC50 (3D7 strain): 1.4 ± 0.4 nM
CC1CCC2C(C)C(OC(=O)CCC(=O)OCCNc3ccnc4cc(Cl)ccc34)OC3OC4(C)CCC1C32OO4 (stereo not shown) [hybrid 4] |  |  |  |  |  |  | EC50 [6]: 1.7 to 4.5 nM
CCOC(=O)c1cn(CC)c2cc(N3CCN(C(=O)CCC(=O)O[C@@H]4O[C@@H]5O[C@@]6(C)CCC7[C@H](C)CCC([C@H]4C)[C@]75OO6)CC3)c(F)cc2c1=O (stereo partly drawn) [Compound 23, Ethyl 1-ethyl-6-fluoro-4-oxo-7-(4-(4-oxo-4-(((3R,6R,9R,10S,12R,12aR)-3,6,9-trimethyldecahydro-12H-3,12-epoxy[1,2]dioxepino[4,3-i]isochromen-10-yl)oxy)butanoyl)piperazin-1-yl)-1,4-dihydroquinoline-3-carboxylate] | 1.5 nM | 28,000 and 28,382 | 3.5 nM | 12,488 | 43700 nM | 140 to 141.1 °C | IC50 [3, 8]: 1.5 nM
